Reference: PMC7044277 (Nature Communications, 2020)
Values joined by “and” are separate entries in the source; they are usually repeats but may differ in a detail not shown here. Identical values can stand only once.

Columns and labels:
Format in all cases: cell-based
Parameters in all cases: GPCRome screening signal at PTGIR / GPCRome screening signal at PTH1R / GPCRome screening signal at PTH2R / GPCRome screening signal at QRFP / GPCRome screening signal at RXFP2 / GPCRome screening signal at RXFP3 / GPCRome screening signal at RXFP4 / GPCRome screening signal at S1PR2 / GPCRome screening signal at S1PR3 / GPCRome screening signal at S1PR4 / GPCRome screening signal at S1PR5 / GPCRome screening signal at SCTR / GPCRome screening signal at SSTR2 / GPCRome screening signal at SSSTR / GPCRome screening signal at SSTR4 / GPCRome screening signal at SSTR5 / GPCRome screening signal at SUCNR1 / GPCRome screening signal at TA1 / GPCRome screening signal at TAAR2 / GPCRome screening signal at TAAR5 / GPCRome screening signal at TAAR6 / GPCRome screening signal at TAAR8 / GPCRome screening signal at TACR1 / GPCRome screening signal at TACR2 / GPCRome screening signal at TACR3 / GPCRome screening signal at TBXA2R / GPCRome screening signal at TSHR / GPCRome screening signal at UTS2R / GPCRome screening signal at VIPR2 / GPCRome screening signal at GPR68 no V2 Tail / GPCRome screening signal at GRM2 / GPCRome screening signal at GRM3: reference not given here
320 non-olfactory GPCRs [1] = target: T1, 320 non-olfactory GPCRs (Homo sapiens, UniProt Q9NSD7); conditions: receptor RXFP3
T1 construct: expressed in transfected cells; host or cells: HTLA cells
T1 sequence (Q9NSD7 whole entry): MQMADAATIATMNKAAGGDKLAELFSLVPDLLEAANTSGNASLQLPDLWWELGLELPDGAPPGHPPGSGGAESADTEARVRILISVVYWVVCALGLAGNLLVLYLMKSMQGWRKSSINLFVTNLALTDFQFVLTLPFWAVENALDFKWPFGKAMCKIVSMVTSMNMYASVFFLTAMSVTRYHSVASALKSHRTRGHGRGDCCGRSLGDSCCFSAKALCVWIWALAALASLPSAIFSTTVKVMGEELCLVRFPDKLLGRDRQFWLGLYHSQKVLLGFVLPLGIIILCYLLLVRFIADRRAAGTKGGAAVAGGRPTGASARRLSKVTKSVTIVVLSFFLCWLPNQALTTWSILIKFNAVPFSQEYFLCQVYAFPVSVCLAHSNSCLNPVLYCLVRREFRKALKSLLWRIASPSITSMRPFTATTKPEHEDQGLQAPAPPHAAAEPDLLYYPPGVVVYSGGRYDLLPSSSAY

320 non-olfactory GPCRs [2] = target: 320 non-olfactory GPCRs (Homo sapiens, UniProt P47872); conditions: receptor SCTR
320 non-olfactory GPCRs (Homo sapiens, UniProt P47872), sequence (P47872 23-440): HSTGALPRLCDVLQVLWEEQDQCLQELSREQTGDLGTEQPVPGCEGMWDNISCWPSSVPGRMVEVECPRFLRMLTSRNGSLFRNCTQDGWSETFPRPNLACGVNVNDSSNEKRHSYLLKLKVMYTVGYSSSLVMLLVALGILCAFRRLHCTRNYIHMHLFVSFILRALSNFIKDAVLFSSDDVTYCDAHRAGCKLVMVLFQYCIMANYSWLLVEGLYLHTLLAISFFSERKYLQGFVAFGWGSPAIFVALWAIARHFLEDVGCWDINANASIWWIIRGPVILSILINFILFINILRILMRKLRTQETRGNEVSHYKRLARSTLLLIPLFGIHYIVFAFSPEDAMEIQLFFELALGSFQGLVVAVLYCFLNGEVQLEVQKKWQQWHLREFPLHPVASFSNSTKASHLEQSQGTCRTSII

320 non-olfactory GPCRs [3] = target: T2, 320 non-olfactory GPCRs (Homo sapiens, UniProt Q9H1C0); conditions: receptor GPR92
T2 construct: expressed in transfected cells; host or cells: HTLA cells
T2 sequence (Q9H1C0 whole entry): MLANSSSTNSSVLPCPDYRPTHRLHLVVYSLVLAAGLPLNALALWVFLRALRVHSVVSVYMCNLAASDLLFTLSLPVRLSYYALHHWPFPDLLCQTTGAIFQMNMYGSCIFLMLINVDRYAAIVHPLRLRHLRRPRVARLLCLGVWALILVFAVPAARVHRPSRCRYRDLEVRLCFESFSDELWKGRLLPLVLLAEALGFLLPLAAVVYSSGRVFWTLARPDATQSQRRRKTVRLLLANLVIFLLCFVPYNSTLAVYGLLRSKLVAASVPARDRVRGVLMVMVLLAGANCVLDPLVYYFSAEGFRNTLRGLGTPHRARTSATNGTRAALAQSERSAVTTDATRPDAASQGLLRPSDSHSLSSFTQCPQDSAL

320 non-olfactory GPCRs [4] = target: 320 non-olfactory GPCRs (Homo sapiens, UniProt Q9H228); conditions: receptor S1PR5
320 non-olfactory GPCRs (Homo sapiens, UniProt Q9H228), sequence (Q9H228 whole entry): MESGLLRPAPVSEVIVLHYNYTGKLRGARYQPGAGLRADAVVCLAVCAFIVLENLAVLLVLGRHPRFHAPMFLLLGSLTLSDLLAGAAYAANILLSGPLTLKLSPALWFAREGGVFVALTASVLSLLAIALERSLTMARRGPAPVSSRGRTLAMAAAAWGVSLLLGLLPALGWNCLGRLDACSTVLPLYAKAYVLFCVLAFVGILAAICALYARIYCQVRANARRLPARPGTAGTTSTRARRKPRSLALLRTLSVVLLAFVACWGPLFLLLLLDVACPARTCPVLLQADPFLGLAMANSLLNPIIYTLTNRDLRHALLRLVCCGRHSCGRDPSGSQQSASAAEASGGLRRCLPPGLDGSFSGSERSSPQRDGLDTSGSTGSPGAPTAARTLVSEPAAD

[5] = Fig_5f, single replicate values
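For GPCRome agonism screen response in this document: fold over basal response of each receptor without drug.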

Row | Structure (SMILES) | GPCRome screening signal at RXFP3 (320 non-olfactory GPCRs [1]; [5]) | GPCRome screening signal at SCTR (320 non-olfactory GPCRs [2]; [5]) | GPCRome screening signal at GPR92 (320 non-olfactory GPCRs [3]; [5]) | GPCRome screening signal at S1PR5 (320 non-olfactory GPCRs [4]; [5]) | GPCRome agonism screen response (320 non-olfactory GPCRs [1]; replicate values, Fig_4g) | GPCRome agonism screen response (320 non-olfactory GPCRs [2]; replicate values, Fig_4g) | GPCRome agonism screen response (320 non-olfactory GPCRs [3]; replicate values, Fig_4g) | GPCRome agonism screen response (320 non-olfactory GPCRs [4]; replicate values, Fig_4g)
1 | CCOc1ccccc1CCC(C)NCC1(O)CCCCC1.Cl (racemic) [Fig_5f] | 0.4184 and 0.8431 and 0.6194 and 0.3935 | 1.0412 and 0.8528 and 0.88 and 1.015 | 0.9709 and 0.5547 and 0.5858 and 0.9422 | 0.8048 and 0.6191 and 0.7126 and 0.9361 | – | – | – | –
2 | CCOc1cccc2cc(C(C)NCC3(O)CCCCC3)oc12 (centres unmarked) [O4LE6] | – | – | – | – | 0.4551 and 0.2696 and 0.704 and 0.4767 | 0.9841 and 0.1649 and 1.315 and 1.208 | 1.1613 and 0.7262 and 0.6248 and 2.678 | 0.6595 and 0.787 and 0.6694 and 0.8628
